The nature of data set [1]: Plasma protein binding (equilibrium dialysis). In kind it is in vitro ADME. The protocol:
(§1) Plasma protein binding was measured using equilibrium dialysis; % bound=(1-[free compound in dialysate]/[total compound in retentate])×100. Plasma stability of […] compound in clarified freeze-thawed plasma was assessed by LC-MS/MS of supernatants after protein precipitation; 120 min data are reported for studies including 0, 10, 30, 60, and 120 min. Microsome stability of […] compound in liver microsomes (0.5 mg/ml) after 0, 5, 10, 20, 30, 60 min. incubation was assessed by LC/MS/MS of reaction extracts.

In data set [2] the target is P-gp/MDR1 (Homo sapiens, UniProt P08183). Briefly: P-gp/MDR1 transport. It counts as in vitro ADME.
P-gp/MDR1, sequence (P08183 whole entry): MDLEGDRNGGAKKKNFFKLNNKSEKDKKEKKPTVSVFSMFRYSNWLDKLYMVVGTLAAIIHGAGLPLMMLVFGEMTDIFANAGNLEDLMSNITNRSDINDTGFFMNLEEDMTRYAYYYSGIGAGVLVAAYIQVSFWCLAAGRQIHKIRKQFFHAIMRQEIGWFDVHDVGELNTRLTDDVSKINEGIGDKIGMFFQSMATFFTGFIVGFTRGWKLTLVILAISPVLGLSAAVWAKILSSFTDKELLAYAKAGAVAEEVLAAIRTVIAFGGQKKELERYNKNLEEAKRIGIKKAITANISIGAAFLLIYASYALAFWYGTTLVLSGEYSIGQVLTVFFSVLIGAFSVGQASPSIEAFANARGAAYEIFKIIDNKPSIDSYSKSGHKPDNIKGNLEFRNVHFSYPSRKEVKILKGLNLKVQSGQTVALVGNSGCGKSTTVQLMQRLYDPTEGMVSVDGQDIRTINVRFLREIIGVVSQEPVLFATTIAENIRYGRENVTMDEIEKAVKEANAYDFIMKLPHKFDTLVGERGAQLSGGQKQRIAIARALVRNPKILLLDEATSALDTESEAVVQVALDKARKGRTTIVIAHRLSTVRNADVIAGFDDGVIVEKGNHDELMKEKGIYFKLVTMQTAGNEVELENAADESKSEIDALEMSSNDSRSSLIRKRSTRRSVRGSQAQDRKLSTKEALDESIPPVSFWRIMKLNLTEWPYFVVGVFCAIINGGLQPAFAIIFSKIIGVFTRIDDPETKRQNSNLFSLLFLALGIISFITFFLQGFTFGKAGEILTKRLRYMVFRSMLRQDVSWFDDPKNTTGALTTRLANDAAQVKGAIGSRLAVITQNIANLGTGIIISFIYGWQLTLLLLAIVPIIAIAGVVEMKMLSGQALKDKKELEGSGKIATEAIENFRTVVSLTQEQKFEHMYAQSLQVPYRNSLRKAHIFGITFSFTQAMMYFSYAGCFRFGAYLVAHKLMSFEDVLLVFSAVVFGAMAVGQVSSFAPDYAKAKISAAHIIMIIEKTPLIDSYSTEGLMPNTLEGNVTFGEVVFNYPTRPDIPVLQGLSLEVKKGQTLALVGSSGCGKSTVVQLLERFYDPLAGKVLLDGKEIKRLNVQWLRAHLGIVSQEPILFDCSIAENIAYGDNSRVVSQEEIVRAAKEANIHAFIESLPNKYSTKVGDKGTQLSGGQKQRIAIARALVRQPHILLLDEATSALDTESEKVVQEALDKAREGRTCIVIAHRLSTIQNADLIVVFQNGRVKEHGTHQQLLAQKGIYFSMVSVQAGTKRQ
Data set [3] concerns Mfn2 null MEFs. Put plainly: Mitochondrial elongation (aspect ratio) fusogenicity assay. In kind it is cell-based, mouse.
Data set [4] can be described thus: Liver microsome stability. It counts as in vitro ADME. The protocol: as §1
A short description of data set [5]: Parallel artificial membrane permeability assay (PAMPA). It counts as in vitro ADME.
Data set [6] is described as follows: In vivo pharmacokinetics in mice. The note with it: mouse, plasma, intramuscular, 1 mg/kg. The method, then: (A) Three mice each were administered 1 mg/kg agonist IV, IP, or IM. Graphs are mean plasma concentration for each administration route. (B) Results for individual mice were administered 1 mg/kg indicated agonist IM.
Data set [7] in a line: Plasma protein binding, mouse. Conditions: read-out: plasma protein bound in the mouse (converted). In kind it is in vitro ADME. The protocol:
as §1

The subject of data set [8] is CMT2A MFN2 T105M mice. Briefly: In vivo sciatic nerve mitochondrial motility in CMT2A mice. The note with it: IM, 2 mg/kg, assessed 4 hours later. Also on record: species or system mouse. The method, then: Sciatic nerve mitochondrial motility was measured 4 hours later. Results described in FIG. 58 are for 2 CMT2A mice per group.

Like-named read-outs stand apart in the source and are kept apart here.

As to `CCn1c(CCCNC(=O)NC2CCOCC2)nnc1C1CC1` [Mitolityn-4, 1-(3-(5-cyclopropyl-4-ethyl-4H-1,2,4-triazol-3-yl)propyl)-3-(tetrahydro-2H-pyran-4-yl)urea], in data set [1], the “Plasma protein binding” value is recorded as “low plasma protein binding”. In addition, the “P-gp mediated transport” value in data set [2] is “no reverse transport by P-gp”. Besides, the concentration for a half-maximal effect (EC50) in data set [3] (Mus musculus, increase in mitochondrial aspect ratio) is about 3 nM. For the same compound, in data set [3] (mitochondrial elongation / fusion), the “Fusogenic activity” value is on record as “highest potency”. Moreover, the “Liver microsome stability” value in data set [4] is reported as “stability in the liver microsome assay”. Further, in data set [5], the “Passive diffusion across lipid-infused artificial membrane (PAMPA, words)” value is given as “no passive diffusion across lipid membrane”. Further, the concentration at 2 h in data set [6] (1 mg/kg IM, read-out: total plasma drug concentration 2 hours after IM administration) is 7.5 ng/mL; in data set [6] (IM, from total concentration and protein binding, read-out: free drug concentration 2 hours after IM administration) it was about 6.66 ng/mL; in data set [6] (IM, read-out: free drug concentration 2 hours after IM administration) it was about 20 nM. In addition, the fraction unbound in data set [7] was 0.888.
With `O=C(NCCCc1nnc(C2CC2)n1-c1ccccc1)NC1CCOCC1` [Regeneurin-C/O, 1-(3-(5-cyclopropyl-4-phenyl-4H-1,2,4-triazol-3-yl)propyl)-3-(tetrahydro-2H-pyran-4-yl)urea], the “Sciatic nerve axon mitochondrial motility in vivo” value in data set [8] is reported as “reverses the characteristic mitochondrial immobility in sciatic nerve axons”.

These data come from US10844023B2 (Washington University, priority 2017, dated 2020).
